Key:
HELA [1] = experiment: cells; conditions: Homo sapiens; for GI50: read-out: GI50 HELA; for CC50: read-out: LC50 HELA
DNA = experiment: Secondary Screening, DNA Binding GEL; conditions: Secondary Evaluation
LN-caP [2] = experiment: cells; conditions: Homo sapiens, LNCaP; for GI50: read-out: GI50 LN-caP; for CC50: read-out: LC50 LN-caP
HT29 [3] = experiment: cells; conditions: Homo sapiens; for GI50: HT-29, read-out: GI50 HT29; for CC50: HT-29, read-out: LC50 HT29
DNA synthesis = experiment: Secondary Screening, Macromolecules Synthesis DNA; assay type: cell-based; conditions: Secondary Evaluation
LOVO-DOX [4] = conditions: Colon
K-562 [5] = conditions: Leukemia
SK-BR3 [6] = conditions: Breast
IGROV-ET [7] = experiment: cells; conditions: for GI50: read-out: GI50 IGROV-ET; for CC50: read-out: LC50 IGROV-ET
PANC1 [8] = experiment: cells; conditions: Homo sapiens; for GI50: PANC-1, read-out: GI50 PANC1; for CC50: PANC-1, read-out: LC50 PANC1
K-562 [9] = experiment: cells; conditions: Homo sapiens; for GI50: K562, read-out: GI50 K-562; for CC50: K562, read-out: LC50 K-562
IGROV-ET [10] = conditions: Ovary
LOVO-DOX [11] = experiment: cells; conditions: for GI50: read-out: GI50 LOVO-DOX; for CC50: read-out: LC50 LOVO-DOX
IGROV [12] = conditions: Ovary
PROTEIN synthesis = experiment: Secondary Screening, Macromolecules Synthesis PROTEIN; assay type: cell-based; conditions: Secondary Evaluation
HELA [13] = conditions: Cervix
LOVO [14] = conditions: Colon
A549 [15] = conditions: NSCL
PANC1 [16] = conditions: Pancreas
A549 [17] = experiment: cells; conditions: Homo sapiens; for GI50: A549, read-out: GI50 A549; for CC50: A549, read-out: LC50 A549
LOVO [18] = experiment: cells; conditions: Homo sapiens; for GI50: read-out: GI50 LOVO; for CC50: read-out: LC50 LOVO
SK-MEL-28 [19] = conditions: Melanoma
[20] = Antibacterial and antitumoral activities, general statements; conditions: compared with safracin A / safracin B
LN-caP [21] = conditions: Prostate
Bacillus subtilis = experiment: Antimicrobial activity on solid medium, disk; assay type: cell-based; conditions: Bacillus subtilis, 10 μg/disk (6 mm diameter)
Experimental: Antimicrobial activity: On solid medium Bacillus subtilis. 10 μg/disk (6 mm diameter): 10 mm inhibition zone Spectroscopic Data: […]

HT29 [22] = conditions: Colon
SK-MEL-28 [23] = experiment: cells; conditions: Homo sapiens; for GI50: SK-MEL-28, read-out: GI50 SK-MEL-28; for CC50: SK-MEL-28, read-out: LC50 SK-MEL-28
DU-145 [24] = conditions: Prostate
Apoptosis (NUCLEOSOMES) = experiment: Secondary Screening, Apoptosis NUCLEOSOMES; assay type: cell-based; conditions: Secondary Evaluation
IGROV [25] = experiment: cells; conditions: for GI50: read-out: GI50 IGROV; for CC50: read-out: LC50 IGROV
RNA synthesis = experiment: Secondary Screening, Macromolecules Synthesis RNA; assay type: cell-based; conditions: Secondary Evaluation
HELA-APL [26] = conditions: Cervix
HELA-APL [27] = experiment: cells; conditions: for GI50: read-out: GI50 HELA-APL; for CC50: read-out: LC50 HELA-APL
SK-BR3 [28] = experiment: cells; conditions: Homo sapiens; for GI50: SK-BR-3, read-out: GI50 SK-BR3; for CC50: SK-BR-3, read-out: LC50 SK-BR3
DU-145 [29] = experiment: cells; conditions: Homo sapiens; for GI50: DU-145, read-out: GI50 DU-145; for CC50: DU-145, read-out: LC50 DU-145

With `CCOC1=C(C)C(=O)C2=C(C1=O)C(CNC(=O)C(C)N)N1C(O)C3Cc4cc(C)c(OCC)c(O)c4C(C1C2)N3C` (centres unmarked) [Safracin B (OEt)] the GI50 (HELA [1]) was 0.0892 µM, the CC50 (HELA [1]) was 1.35 µM and the IC50 (DNA) was 17.6 µM. For the same molecule, the GI50 (LN-caP [2]) was 0.0484 µM, the CC50 (LN-caP [2]) was 0.828 µM and the GI50 (HT29 [3]) was 0.244 µM. For the same molecule, the CC50 (HT29 [3]) was over 17.6 µM, the IC50 (DNA synthesis) was 1.76 µM and the “TGI LOVO-DOX” value (LOVO-DOX [4]) was 9.88 µM. For the same molecule, the “TGI K-562” value (K-562 [5]) was 0.108 µM, the “TGI SK-BR3” value (SK-BR3 [6]) was 0.116 µM and the GI50 (IGROV-ET [7]) was 0.682 µM. The CC50 (IGROV-ET [7]) was 6.37 µM, the GI50 (PANC1 [8]) was 0.649 µM and the CC50 (PANC1 [8]) was 13.5 µM. The GI50 (K-562 [9]) was 0.0397 µM, the CC50 (K-562 [9]) was 3.69 µM and the “TGI IGROV-ET” value (IGROV-ET [10]) was 1.19 µM. The GI50 (LOVO-DOX [11]) was 2.09 µM, the CC50 (LOVO-DOX [11]) was over 17.6 µM and the “TGI IGROV” value (IGROV [12]) was 0.0997 µM. The IC50 (PROTEIN synthesis) was over 17.6 µM, the “TGI HELA” value (HELA [13]) was 0.315 µM and the “TGI LOVO” value (LOVO [14]) was 1.09 µM. The “TGI A549” value (A549 [15]) was 1.16 µM, the “TGI PANC1” value (PANC1 [16]) was 2.06 µM and the GI50 (A549 [17]) was 0.501 µM. It also gave a CC50 (A549 [17]) of 5.66 µM, a GI50 (LOVO [18]) of 0.443 µM and a CC50 (LOVO [18]) of over 17.6 µM. The “TGI SK-MEL-28” value (SK-MEL-28 [19]) was 0.44 µM, the “antibacterial and antitumoral activities (in words)” value [20] was “as potent as the activities of safracin A and safracin B, respectively” and the “TGI LN-caP” value (LN-caP [21]) was over 17.6 µM. For the same molecule, the zone of inhibition at 10 µg/disc (Bacillus subtilis) was 17.5 mm, the “TGI HT29” value (HT29 [22]) was 1.39 µM and the GI50 (SK-MEL-28 [23]) was 0.169 µM. The CC50 (SK-MEL-28 [23]) was 1.13 µM, the “TGI DU-145” value (DU-145 [24]) was 1.01 µM and the IC50 (Apoptosis (NUCLEOSOMES)) was 0.0528 µM. For the same molecule, the GI50 (IGROV [25]) was 0.0406 µM, the CC50 (IGROV [25]) was 4.27 µM and the IC50 (RNA synthesis) was 0.176 µM. For the same molecule, the “TGI HELA-APL” value (HELA-APL [26]) was 0.274 µM, the GI50 (HELA-APL [27]) was 0.077 µM and the CC50 (HELA-APL [27]) was 0.976 µM. It also gave a GI50 (SK-BR3 [28]) of 0.0482 µM, a CC50 (SK-BR3 [28]) of 1.02 µM and a GI50 (DU-145 [29]) of 0.401 µM. The CC50 (DU-145 [29]) was 16 µM.
Work on `COC1=C(C)C(=O)C2=C(C1=O)C(CNC(=O)C(C)N)N1C(O)C3Cc4cc(C)c(OC)c(O)c4C(N3)C1C2` (centres unmarked) [Safracin D] yielded a GI50 (HELA [1]) of 3.76 µM, a CC50 (HELA [1]) of 11.9 µM and an IC50 (DNA) of 6.65 µM. It also gave a GI50 (LN-caP [2]) of 1.54 µM, a CC50 (LN-caP [2]) of 9.78 µM and a GI50 (HT29 [3]) of 4.33 µM. The CC50 (HT29 [3]) was over 19 µM, the IC50 (DNA synthesis) was 15.2 µM and the “TGI LOVO-DOX” value (LOVO-DOX [4]) was 8.85 µM. For the same molecule, the “TGI K-562” value (K-562 [5]) was 1.16 µM, the “TGI SK-BR3” value (SK-BR3 [6]) was 7.82 µM and the GI50 (IGROV-ET [7]) was 1.33 µM. It also gave a CC50 (IGROV-ET [7]) of 9.15 µM, a GI50 (PANC1 [8]) of 4.77 µM and a CC50 (PANC1 [8]) of over 19 µM. The GI50 (K-562 [9]) was 0.604 µM, the CC50 (K-562 [9]) was 3.78 µM and the “TGI IGROV-ET” value (IGROV-ET [10]) was 3.34 µM. For the same molecule, the GI50 (LOVO-DOX [11]) was 4.75 µM, the CC50 (LOVO-DOX [11]) was 16.5 µM and the “TGI IGROV” value (IGROV [12]) was 6.02 µM. The IC50 (PROTEIN synthesis) was 19 µM, the “TGI HELA” value (HELA [13]) was 6.68 µM and the “TGI LOVO” value (LOVO [14]) was 18.2 µM. The “TGI A549” value (A549 [15]) was 10.7 µM, the “TGI PANC1” value (PANC1 [16]) was 11 µM and the GI50 (A549 [17]) was 6.04 µM. The CC50 (A549 [17]) was 18.8 µM, the GI50 (LOVO [18]) was 6.99 µM and the CC50 (LOVO [18]) was over 19 µM. For the same molecule, the “TGI SK-MEL-28” value (SK-MEL-28 [19]) was 6.21 µM, the “antibacterial and antitumoral activities (in words)” value [20] was “the same antibacterial and antitumoral activities as safracin B and safracin A, respectively” and the “TGI LN-caP” value (LN-caP [21]) was 4.12 µM. For the same molecule, the zone of inhibition at 10 µg/disc (Bacillus subtilis) was 15 mm, the “TGI HT29” value (HT29 [22]) was 17.9 µM and the GI50 (SK-MEL-28 [23]) was 3.51 µM. The CC50 (SK-MEL-28 [23]) was 11 µM, the “TGI DU-145” value (DU-145 [24]) was 9.99 µM and the IC50 (Apoptosis (NUCLEOSOMES)) was 2.85 µM. For the same molecule, the GI50 (IGROV [25]) was 2.68 µM, the CC50 (IGROV [25]) was 13.5 µM and the IC50 (RNA synthesis) was 3.8 µM. The “TGI HELA-APL” value (HELA-APL [26]) was 5.24 µM, the GI50 (HELA-APL [27]) was 2.28 µM and the CC50 (HELA-APL [27]) was 12.1 µM. The GI50 (SK-BR3 [28]) was 4.71 µM, the CC50 (SK-BR3 [28]) was 13 µM and the GI50 (DU-145 [29]) was 5.22 µM. It also gave a CC50 (DU-145 [29]) of 19 µM.
